Measurements taken from US20240390414A1 (priority 2023, published 2024).

Experiments:
[1] = tested on: differentiated human derived cell lines; settings: glial cells activated by LPS/IFNγ or IFNγ and treated with STS; cited from earlier work
[2] = 2018 study, cited from earlier work
[3] = corn and wheat samples; cited from earlier work
[4] = Excerpt: With or without one or more of the following adjuvant cofactors given one to three times daily
I did Viome testing and must avoid some foods and take pre and pro biotics that they recommend.

[5] = tested on: human microglia and astrocytes; settings: cited from earlier work
[6] = cited from earlier work

## O=S([O-])([O-])=S.[Na+].[Na+] [STS, Sodium thiosulfate]
[1]
  neuroprotection: significant enhancement of neuroprotection
[2]; Journal of Environmental Science and Health
  toxicity of deoxynivalenol (DON): reduced the toxicity
[2]
  levels of oxidative stress and inflammation caused by DON exposure: able to reduce the levels of oxidative stress and inflammation
[3]
  levels of aflatoxins, ochratoxin A, and zearalenone: significantly reduce the levels
[4]; in combination with sporanox
  changes observed (patient questionnaire comment): more aware and more present
[4]; on day 1, one patient's comment
  stimming reduced: 80-90%
[4]; one patient's comment
  reduction in finger flicking and finger writing stimming: 30 to 40%
[5]
  H2S and GSH expression: increases

## O.O.O.O.O.O=S([O-])([O-])=S.[Na+].[Na+] [sodium thiosulfate pentahydrate]
[6]; Ackermann et al. 2007
  treatment for calciphylaxis: effective treatment for calciphylaxis
[6]; O'Neill 2008
  treatment for vascular calcification: effective treatment for vascular calcification
[6]; Skinner 1995
  prevention of platinum-induced ototoxicity and nephrotoxicity: effective treatment to prevent platinum-induced ototoxicity and nephrotoxicity
